Reference: publication PMC8001783, “New Lignanamides with Antioxidant and Anti-Inflammatory Activities Screened Out and Identified from Warburgia ugandensis Combining Affinity Ultrafiltration LC-MS with SOD and XOD Enzymes” (Antioxidants, 2021)
Several values for one entry are separate records, joined by “and”; a condition that tells them apart may be missing. Identical values can stand only once. Marks after values point to notes of the source that are not given here.

Key:
[1] = DPPH free radical scavenging assay; settings: 30 min, 517 nm, n = 3; for IC50: pure compounds
Protocol: The DPPH free radical scavenging activities of extracts and pure compounds from stem barks of W. ugandensis were tested according to previous studies with slight modifications. Firstly, 10 µL solutions of the samples, appropriately diluted with MeOH, were homogeneously mixed with 190 µL solution of DPPH (0.1 mM in MeOH) in a 96-well plate. Secondly, the mixtures were gently shaken and put at room temperature for 30 min in the darkness. Finally, the absorbance was recorded at 517 nm with multifunctional microplate reader. Trolox was used as positive control, and MeOH was used as blank control. Each of the samples and controls were tested in triplicate (n = 3). The antioxidant activities of DPPH were expressed as IC50 (concentration of samples caused 50% inhibition) and TEAC values. The TEAC values were calculated from the standard curve of Trolox and expressed as millimoles of Trolox equivalents per gram of sample (mmol TE/g). The inhibition of the DPPH radical was calculated according to the following formula:DPPH scavenging activity (%) = (1 − absorbance of sample/absorbance of blank control) × 100,(1) where DPPH scavenging activities (%) were plotted against the concentration of samples to obtain the IC50.

[2] = ABTS free radical scavenging assay; settings: 30 min, 734 nm, n = 3; for IC50: pure compounds
Protocol: The ABTS free radical scavenging activities of extracts and pure compounds from stem barks of W. ugandensis were tested according to previous studies with slight modifications. ABTS^+ solution was prepared by mixing equal volumes of potassium persulfate (4.9 mM in H2O) and ABTS (7.0 mM in H2O) and then incubated for 12 h in the darkness. The prepared ABTS^+ solution was diluted with MeOH to ensure an absorbance value about 0.700 ± 0.005 at 734 nm. Firstly, 10 µL of appropriately diluted solution of samples was added to the 190 µL ABTS^+ solution in 96-well plate. Secondly, the mixtures were gently shaken and put at room temperature for 30 min in the darkness. Finally, the absorbance was recorded at 734 nm with multifunctional microplate reader. Trolox was used as positive control, and MeOH was used as blank control. Samples and controls were tested in triplicate (n = 3). The antioxidant activities of ABTS were expressed as IC50 and TEAC values. The inhibition of the ABTS radicals was calculated according to the following formula:ABTS scavenging activity (%) = (1 − absorbance of sample/absorbance of blank control) × 100,(2) where ABTS scavenging activities (%) were plotted against the concentration of samples to acquire the IC50.

[3] = Ferric reducing antioxidant power (FRAP) assay; settings: 37 °C, 10 min, 593 nm, n = 3
Protocol: The ferric reducing antioxidant power assays on different extracts and pure compounds of stem barks from W. ugandensis were tested according to previous studies with slight modifications. Firstly, freshly prepared FRAP reagent (Fe^3+-TPTZ solution) was composed of FeCl3∙6H2O (20 mM in H2O), TPTZ (10 mM in 40 mM HCl), and acetate buffer (300 mM, pH = 3.6) at a ratio of 1:1:10 (v/v/v), then incubated at 37 °C after preparation, and used within 1–2 h. Secondly, 10 µL of appropriately diluted solution of samples was added to the 190 µL freshly prepared FRAP reagent in 96-well plate. Thirdly, the mixtures were gently shaken and put at 37 °C for 10 min. Finally, the absorbance was recorded at 593 nm with multifunctional microplate reader. Trolox was used as a positive control, and MeOH was used as blank control. Each of the samples and controls were tested in triplicate (n = 3). The antioxidant activities of FRAP were expressed as FRAP values and TEAC values. The FRAP values were calculated and expressed as millimoles of Fe^2+ equivalents per gram of sample (mmol Fe^2+/g) based on a calibration curve plotted using FeSO4∙7H2O as standard at a concentration ranging from 0.0185 to 1.5 mM.

xanthine oxidase (XOD) = test: Affinity ultrafiltration LC-MS/MS with XOD (relative binding affinity); settings: peaks of WUE-A4, XOD 2 U, 37 °C 1 h, n = 3
Protocol: (§1) The experimental conditions were proposed according to previous relevant studies. Briefly, the optimized experiment was composed of three steps. Incubation was the first step, where 100 μL WUE-A4 (10.0 mg/mL), 10 µL SOD (2 U) or XOD (2 U), and 90 µL Tris-HCl (pH = 7.8) were mixed well in 1.5 mL EP tubes, and then incubated at 37 °C in the dark for 1 h. Meanwhile, the incubation operations of inactivated enzymes (inactivated enzymes were obtained by heating enzymes in a 99 °C water bath for 10 min) were the same as the active enzymes. Adsorption was the second step, where the incubated solutions were transferred to ultrafiltration tubes with 30 KDa (for SOD) or 10 KDa (for XOD) ultrafiltration membranes and then centrifuged at 10,000 rpm for 10 min at 25 °C. Simultaneously, components which had no binding affinity to enzymes were washed out. Immediately, 300 µL of Tris-HCl solution (pH = 7.8) was added to the ultrafiltration tubes and centrifuged at 10,000 rpm for 5 min at 25 °C to remove the potential unbound components. Desorption was the third step, where 300 µL of 90% (v/v) MeOH-H2O was added and incubated for 10 min at room temperature, and the mixed solutions were centrifuged at 10,000 rpm for another 10 min at 25 °C. After that, the desorption process was repeated two times to release those components with specific bindings to SOD or XOD from the enzyme-ligand complexes. Finally, those ultrafiltrates were dried and reconstituted in 50 µL MeOH for the HPLC-UV/ESI-MS/MS analysis.
(§2) HPLC-UV/ESI-MS/MS was carried out to characterize the components in WUE-A4 before and after ultrafiltration by using a Thermo Accela 600 series HPLC connected with a TSQ Quantum Access MAX mass spectrometer (Thermo Fisher Scientific, San Jose, CA, USA). A Waters Symmetry RP-C18 column (4.6 × 250 mm, 5 µm) was used to perform chromatographic analysis at 30 °C, and the mobile phase consisted of H2O with 0.1% formic acid (A) and ACN (B). The optimized HPLC elution procedures were as follows: 0–15 min, 17% B; 15–40 min, 17–30% B, 40–42 min: 30–56% B. The flow rate was 0.8 mL/min, the injection volume was 10 µL, and the HPLC-UV chromatograms were detected at a wavelength of 254 nm. The negative ion modes were applied to obtained ESI-MS/MS data. Moreover, the parameters of instrument were set as follows: the vaporizer temperature was 350 °C, the capillary temperature was 250 °C, the spray voltage was 3000 V, the cone voltage energy was 40 V, the collision energy was 10 V, the sheath gas pressure was 40 psi, the aux gas pressure was 10 psi, the drying gas flow rate was 6.0 L/min, and the mass range was set from 50 to 1100 (m/z) in the full-scan mode. Finally, the Thermo Xcalibur ChemStation (Thermo Fisher Scientific) was used for data acquisition and analysis.
(§3) For further evaluation of the affinity binding strength between the potential ligands and the target enzymes, the relative binding affinity (RBA) was employed to compare the variation of the correlated peak areas in the UF-HPLC-UV chromatograms before and after activation. The RBA formula is expressed as RBA = Aactive/Ainactivated, where the Aactive and Ainactivated represent the peak areas obtained from the WUE-A4 samples with activated and inactivated SOD or XOD, respectively.

[4] = system: superoxide dismutase (SOD); test: Affinity ultrafiltration LC-MS/MS with SOD (relative binding affinity); design: key: -: No binding affinity; settings: peaks of WUE-A4, SOD 2 U, 37 °C 1 h, n = 3
Protocol: as §1, §2, §3

IC50 [1]	IC50 [2]	UF-RBA XOD (relative binding affinity = Aactive/Ainactivated) (xanthine oxidase (XOD))	UF-RBA XOD (relative binding affinity = Aactive/Ainactivated) (xanthine oxidase (XOD); listed as peak 12)	UF-RBA SOD (relative binding affinity = Aactive/Ainactivated) [4]	DPPH IC50 ([1]; extracts/fractions)	ABTS IC50 ([2]; extracts/fractions)	UF-RBA SOD (relative binding affinity = Aactive/Ainactivated) ([4]; listed as peak 3)	Compound	FRAP value [3]
142 ± 36.1 µM	1150 ± 630 µM	1.7 ± 0.5 ^b,c	1.70	-				1-(3,4-dihydroxy-5-methoxyphenyl)-1,2-dihydroxy-7,8-dihydroxy-N-[(4-hydroxyphenyl)-ethyl]-N′-[(4-hydroxyphenyl) -ethyl]-6-methoxynaphthalene-2,3-dicarboxamide [compound 12]	1.1 ± 0.2 ^c mmol Fe^2+/g
36 µM	22.4 µM				9.0 ± 0.3 ^f µg/mL	5.9 ± 0.1 ^e µg/mL		Cc1c(C)c2c(c(C)c1O)CCC(C)(C(=O)O)O2 (stereo not shown) [Trolox, 6-Hydroxy-2,5,7,8-tetramethylchroman-2-carboxylic acid, reference compound]	16.212 ± 1.271 mmol Fe^2+/g and 16.2 ± 1.3 ^a mmol Fe^2+/g
		1.0 ± 0.2 ^d		2.0 ± 0.1 ^a,b			1.99	C[C@@H]1O[C@@H](O[C@@H]2[C@@H](O)[C@H](O)[C@@H](CO)O[C@H]2c2cc(-c3cc(=O)c4c(O)cc(O)cc4o3)ccc2O)[C@H](O)[C@H](O)[C@H]1O [compound 3, 2-[3-[2-O-(6-deoxy-α-L-mannopyranosyl)-β-D-glucopyranosyl]-4-hydroxyphenyl]-5,7-dihydroxy-4H-1-benzopyran-4-one]	
		1.2 ± 0.1 ^c,d		1.1 ± 0.1 ^e				O=C1OCC2OC(Oc3ccc(cc3)C(=O)OCC3OC(Oc4ccc1cc4)C(O)C(O)C3O)C(O)C(O)C2O [compound 5, 4-[(6′-O-β-D-allopyranosyl)-oxy]-hydroxy-benzoic acid cyclic dimeric inner ester]	
